Here are results for one molecule from patent publication EP0261362A2, “Ubidecarenone as a keloid remedy” (Eisai Co., Ltd., priority 1986, dated 1988).

Format in all cases: in vivo
For data set [1], the system named is skin. Put plainly: Primary skin irritation test. The conditions noted are these: Concn. 1%, solvent Squalane. From the text: (§1) The safety of percutaneous administration of ubidecarenone is high, and skin irritation due to ubidecarenone is minor. For example, the results of primary skin irritation, accumulative irritation, eyelid irritation, phototoxis, sensitization, photosensitization, and patch tests are as shown in Table l.

Data set [2] has as its system skin. In words: Accumulative skin irritation test. The note with it: Concn. 1%, solvent Squalane.
Source text: as §1

The subject of data set [3] is eyelid. In words: Eyelid irritation test. The note with it: Concn. 1%, solvent Squalane.
Source text: as §1

In data set [4] the test system is skin. Put plainly: Phototoxis test. The conditions noted are these: Concn. 1% and 10%, solvent Squalane.
Source text: as §1

Data set [5] has as its system skin. Put plainly: Sensitization test (Adjuvant & Patch method). The note with it: Induction: 5% acetone.
Source text: as §1

Data set [6] has as its system skin. Put plainly: Photosensitization test (Adjuvant & Strip method). The note with it: Induction: 10% acetone.
Source text: as §1

For data set [7], the system named is skin. Put plainly: Patch test. The conditions noted are these: Concn. 1%, solvent Squalane.
Source text: as §1

With `COC1=C(OC)C(=O)C(C/C=C(\C)CC/C=C(\C)CC/C=C(\C)CC/C=C(\C)CC/C=C(\C)CC/C=C(\C)CC/C=C(\C)CC/C=C(\C)CC/C=C(\C)CCC=C(C)C)=C(C)C1=O` [ubidecarenone], in data set [1], the “Primary skin irritation, conclusion” value is on record as “lowly irritative”. Also, the “Primary skin irritation, result” value in data set [1] is listed as 0.1. Moreover, in data set [2], the “Accumulative skin irritation, result” value was 0.3. Also, the “Eyelid irritation, conclusion” value in data set [3] is reported as “lowly irritative”. Also, the “Phototoxis, conclusion” value in data set [4] is “lowly phototoxic”. Also, the “Sensitization Challenge, result” value in data set [5] (challenge 1% in acetone) and in data set [5] (challenge 5% in acetone) was 0/10 throughout. In data set [5] (challenge 5% and 1% in acetone), the “Sensitization Challenge, conclusion” value is “lowly sensitized”. In addition, the “Photosensitivization Challenge, result” value in data set [6] (challenge 0.5 in acetone), in data set [6] (challenge 1 in acetone), in data set [6] (challenge 2 in acetone), in data set [6] (challenge 5 in acetone) and in data set [6] (challenge 10% in acetone) was 0/5 in each case. Besides, in data set [6] (challenge 10% to 0.5 in acetone), the “Photosensitivization Challenge, conclusion” value was “lowly photosensitized”. Moreover, the “Patch test, conclusion” value in data set [7] is “lowly irritative”. In addition, the “Patch test, result” value in data set [7] is reported as 0/54.
